Test results published in patent publication US9150575B2, “Piperidinylpyrazolopyridine derivative” (Daiichi Sankyo Company, Limited, priority 2012, dated 2015).

Target: T1, LCAT (Homo sapiens, UniProt P04180)
T1 construct: The obtained fraction was dialyzed against phosphate-buffered saline (pH 7.4) and used as an enzyme source and an acceptor for LCAT; from tissue; host or cells: HDL3 fraction (1.125<specific gravity<1.210 g/mL) of plasma from a healthy person
T1 sequence (P04180 25-440): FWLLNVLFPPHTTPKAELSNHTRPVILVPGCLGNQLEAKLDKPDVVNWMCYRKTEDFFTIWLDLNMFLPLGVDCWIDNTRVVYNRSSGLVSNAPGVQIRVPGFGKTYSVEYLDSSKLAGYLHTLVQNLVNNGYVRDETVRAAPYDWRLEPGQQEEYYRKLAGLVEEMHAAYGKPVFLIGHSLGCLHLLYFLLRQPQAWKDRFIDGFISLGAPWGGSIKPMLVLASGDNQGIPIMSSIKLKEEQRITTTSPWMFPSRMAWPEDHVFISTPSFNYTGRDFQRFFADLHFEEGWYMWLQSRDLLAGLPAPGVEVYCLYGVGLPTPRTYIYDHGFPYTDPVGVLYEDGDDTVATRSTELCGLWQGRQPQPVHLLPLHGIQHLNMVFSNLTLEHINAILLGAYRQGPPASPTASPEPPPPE
Assay: LCAT Activity Measurement (In Vitro)
Format: biochemical
Settings: EC50 of LCAT activation; HDL3 fraction from plasma of a healthy person as enzyme source and acceptor; [14C]cholesterol; 37° C., approximately 16 hours
Experimental: A fraction composed of HDL3 (1.125<specific gravity<1.210 g/mL) was obtained from the plasma of a healthy person by density gradient centrifugation. The obtained fraction was dialyzed against phosphate-buffered saline (pH 7.4) and used as an enzyme source and an acceptor for LCAT. Each test drug was prepared by dissolution in dimethyl sulfoxide. [14C]Cholesterol containing DTNB (Ellman's reagent, final concentration: 0.5 mM), mercaptoethanol (final concentration: 12.5 mM), and 0.6% bovine serum albumin was added to phosphate-buffered saline (pH 7.4) containing 1 mg/mL HDL3, and the test drug was further added thereto at varying concentrations to adjust the whole amount to 80 μL. This mixture was incubated at 37° C. for approximately 16 hours. Then, a mixed solution of hexane and isopropanol (mixing ratio=3:2) was added thereto to stop the reaction. After stirring, the hexane layer was collected, and this layer was evaporated to dryness. A chloroform solution (concentration: 10 mg/mL) was added thereto, and the mixture was spotted onto a thin-layer silica gel plate and developed using a mixed solution of hexane, diethyl ether, and ethyl acetate (mixing ratio=85:15:2). The radioactivity of a portion corresponding to cholesterol oleate was measured using an imaging analyzer BAS-2500 (manufactured by Fujifilm Corp.). A sample non-supplemented with the test drug was similarly treated and assayed. The EC50 value of LCAT activation was calculated according to the expression given below relative to LCAT activity in the sample non-supplemented with the test drug.
wherein X represents the logarithm of the concentration of the test drug;
Y represents the responsiveness (LCAT activity) of the test drug;
Top represents the maximum value (maximum plateau);
Bottom represents the minimum value (minimum plateau); and
EC50 represents the 50% effective concentration.

Row | SMILES | EC50 [nM]
1 | CN(C)C(=O)c1cc(N2CCC(c3n[nH]c4c3C(O)(C(F)(F)F)CC(=O)N4)CC2)ccc1C(F)(F)F (centres unmarked) [Example 69, 5-{4-[4-Hydroxy-6-oxo-4-(trifluoromethyl)-4,5,6,7-tetrahydro-1H-pyrazolo[3,4-b]pyridin-3-yl]piperidin-1-yl}-N,N-dimethyl-2-(trifluoromethyl)benzamide] | 190
2 | N#Cc1ncc(N2CCC(c3n[nH]c4c3C(O)(C(F)(F)F)CC(=O)N4)CC2)cc1F (centres unmarked) [Example 38, 3-Fluoro-5-{4-[4-hydroxy-6-oxo-4-(trifluoromethyl)-4,5,6,7-tetrahydro-1H-pyrazolo[3,4-b]pyridin-3-yl]piperidin-1-yl}pyridine-2-carbonitrile] | 43
3 | Cc1cccc(N2CCC(c3n[nH]c4c3C(O)(C(F)(F)F)CC(=O)N4)CC2)n1 (centres unmarked) [Example 3, 4-Hydroxy-3-[1-(6-methylpyridin-2-yl)piperidin-4-yl]-4-(trifluoromethyl)-1,4,5,7-tetrahydro-6H-pyrazolo[3,4-b]pyridin-6-one] | 630
4 | O=C1CC(O)(C(F)(F)F)c2c(C3CCN(c4ccc(C(F)(F)F)cn4)CC3)n[nH]c2N1 (single isomer, unassigned; (-)) [Compound 49-1, (−)-4-Hydroxy-4-(trifluoromethyl)-3-{1-[5-(trifluoromethyl)pyridin-2-yl]piperidin-4-yl}-1,4,5,7-tetrahydro-6H-pyrazolo[3,4-b]pyridin-6-one] | 18
5 | O=C1CC(O)(C(F)(F)F)c2c(C3CCN(c4cc(C(=O)OCc5ccccc5)c(C(F)(F)F)cn4)CC3)n[nH]c2N1 (centres unmarked) [Example 85, Benzyl 2-[4-(4-hydroxy-6-oxo-4-(trifluoromethyl)-4,5,6,7-tetrahydro-1H-pyrazolo[3,4-b]pyridin-3-yl)piperidin-1-yl]-5-(trifluoromethyl)pyridine-4-carboxylate] | 13
6 | O=C1CC(O)(C(F)(F)F)c2c(C3CCN(c4nc(C5CC5)no4)CC3)n[nH]c2N1 (centres unmarked) [Example 71, 3-[1-(3-Cyclopropyl-1,2,4-oxadiazol-5-yl)piperidin-4-yl]-4-hydroxy-4-(trifluoromethyl)-1,4,5,7-tetrahydro-6H-pyrazolo[3,4-b]pyridin-6-one] | 520
7 | O=C1CC(O)(C(F)(F)F)c2c(C3CCN(c4ccc5ccccc5n4)CC3)n[nH]c2N1 (centres unmarked) [Example 16, 4-Hydroxy-3-[1-(quinolin-2-yl)piperidin-4-yl]-4-(trifluoromethyl)-1,4,5,7-tetrahydro-6H-pyrazolo[3,4-b]pyridin-6-one] | 96
8 | O=C1CC(O)(C(F)(F)F)c2c(C3CCN(c4nccs4)CC3)n[nH]c2N1 (centres unmarked) [Example 29, 4-Hydroxy-3-[1-(1,3-thiazol-2-yl)piperidin-4-yl]-4-(trifluoromethyl)-1,4,5,7-tetrahydro-6H-pyrazolo[3,4-b]pyridin-6-one] | 1880
9 | CCc1ccc(N2CCC(c3n[nH]c4c3C(O)(C(F)(F)F)CC(=O)N4)CC2)nc1 (centres unmarked) [Example 73, 3-[1-(5-Ethylpyridin-2-yl)piperidin-4-yl]-4-hydroxy-4-(trifluoromethyl)-1,4,5,7-tetrahydro-6H-pyrazolo[3,4-b]pyridin-6-one] | 83
10 | COc1ccnc(N2CCC(c3n[nH]c4c3C(O)(C(F)(F)F)CC(=O)N4)CC2)c1 (centres unmarked) [Example 39, 4-Hydroxy-3-[1-(4-methoxypyridin-2-yl)piperidin-4-yl]-4-(trifluoromethyl)-1,4,5,7-tetrahydro-6H-pyrazolo[3,4-b]pyridin-6-one] | 330
11 | COC(=O)c1nc(N2CCC(c3n[nH]c4c3C(O)(C(F)(F)F)CC(=O)N4)CC2)ccc1C(F)(F)F (centres unmarked) [Example 77, Methyl 6-{4-[4-hydroxy-6-oxo-4-(trifluoromethyl)-4,5,6,7-tetrahydro-1H-pyrazolo[3,4-b]pyridin-3-yl]piperidin-1-yl}-3-(trifluoromethyl)pyridine-2-carboxylate] | 58
